What was measured:
[1] = in mice; ref Parkinson Study Group, 2007; cited from earlier work
185 other kinases = details: at 1uM; ref Goodfellow et al., 2013; cited from earlier work
[2] = over 4 weeks in subjects with PD; ref Parkinson Study Group, 2007; cited from earlier work
p38 = details: treatment in mice; ref Dong et al., 2016; cited from earlier work
p46-JNK = details: treatment in mice; ref Dong et al., 2016; cited from earlier work
p54-JNK = details: treatment in mice; ref Dong et al., 2016; cited from earlier work
CD68 expression = details: mouse EAE hippocampus; ref Bellizzi et al., 2018; cited from earlier work
striatal TH = test: Western blot of striatal TH in MPTP model; type: in vivo, C57BL/6J mice; details: 20 mg/kg MPTP for 5 days, vs neurotoxin vehicle or drug vehicle
striatal DA = test: HPLC of striatal neurochemistry in MPTP model; type: in vivo, C57BL/6J mice; details: MPTP 20 mg/kg s.c. 5 days, vs neurotoxin vehicle or drug vehicle
TH+ neurons in the SNpc = type: in vivo, C57BL/6J mice; details: MPTP-treated mice vs neurotoxin vehicle or drug vehicle controls

CCSCc1ccc2c(c1)c1c3c(c4c5cc(CSCC)ccc5n5c4c1n2[C@H]1C[C@](O)(C(=O)OC)[C@]5(C)O1)CNC3=O [CEP-1347]
brain/plasma ratio [1]: < 0.2
number of other kinases with 50% inhibition (185 other kinases): 185
safety and tolerability [2]: safe and well tolerated

CN1CCN(Cc2ccc(-c3cnc4[nH]cc(-c5ccc6[nH]ccc6c5)c4c3)cc2)CC1 [URMC-099]
decrease in phosphorylation of p38 (p38): 21.5%
decrease in phosphorylation of p46-JNK (p46-JNK): 17.3%
decrease in phosphorylation of p54-JNK (p54-JNK): 23.7%
effect on CD68 expression (CD68 expression): prevented increased CD68 expression

CN1CC=C(c2ccccc2)CC1 [MPTP, 1-methyl-4-phenyl-1,2,3,6-tetrahydropyridine]
reduction in striatal TH expression (striatal TH): approximately 50%
reduction in striatal dopamine (striatal DA): approximately 50%
reduction in the number of TH+ neurons in the SNpc (TH+ neurons in the SNpc): approximately 84%

— PMC6592621 (Experimental neurology, 2019)
